Measurements taken from US20260284028A1, “FUSED BICYCLIC HETEROCYCLYL COMPOUNDS AS CCR4 MODULATORS” (AURIGENE ONCOLOGY LIMITED, priority 2023, published 2026).
Like-named read-outs stand apart in the source and are kept apart here.

Molecular target: T1, CCR4 (Homo sapiens, UniProt P51679)
T1 construct: expressed in transfected cells; host or cells: CHO-K1
T1 sequence (P51679 1-360): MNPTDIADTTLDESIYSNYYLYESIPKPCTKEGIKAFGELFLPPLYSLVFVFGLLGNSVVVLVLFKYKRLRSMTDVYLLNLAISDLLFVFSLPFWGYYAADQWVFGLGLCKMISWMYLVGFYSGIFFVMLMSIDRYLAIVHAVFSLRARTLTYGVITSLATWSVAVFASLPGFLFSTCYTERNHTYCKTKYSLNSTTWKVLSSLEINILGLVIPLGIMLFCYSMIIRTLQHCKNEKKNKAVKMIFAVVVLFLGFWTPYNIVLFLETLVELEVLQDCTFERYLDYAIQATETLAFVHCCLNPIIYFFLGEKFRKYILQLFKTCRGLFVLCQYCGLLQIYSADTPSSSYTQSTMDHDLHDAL
Experiment: β-Arrestin recruitment assay (CHO-K1 CCR4 β-Arrestin cells stimulated with recombinant human CCL22)
Format: cell-based
Details: CCL22 10 nM stimulation; for IC50: read-out: CCR4 antagonistic activity IC50 (μM) in range; for inhibition: read-out: % inhibition at 5 μM/30 μM (% E-Max)
Description: CHO-K1 CCR4 β-Arrestin cells were seeded and incubated overnight at 37° C. in a CO2 incubator for adherence. Next day, cells were pretreated with various concentrations of CCR4 modulators for 30 mins at 37° C. The cells were stimulated with recombinant human CCL22 (10 nM) and further incubated for 90 mins. Working detection solution was added and incubated at room temperature for 1 hour after which the chemiluminescent signal was read using a luminometer.
Exemplary compounds of the present application were screened by the above-mentioned assay and the results were tabulated.

[1] = CHO-K1, read-out: % inhibition 30 μM (% E-Max)

Row | SMILES | IC50 | inhibition [1] | inhibition (CHO-K1, at 30 μM) | % inhibition at 5 μM/30 μM (% E-Max)
1 | COc1ccc2nc(N3CC([C@H]4CCCN([C@H]5C[C@](C)(C(=O)O)C5)C4)C3)oc2c1N[C@H](C)c1ccc(Cl)cc1Cl [Compound 10] | 0.25 to 0.5 µM | 93% | – | –
2 | C[C@@H](Nc1c(Cl)ccc2nc(N3CC([C@H]4CCCN([C@H]5C[C@](C)(C(=O)O)C5)C4)C3)oc12)c1ccc(Cl)cc1Cl [Compound 1, (1R,3r)-3-((R)-3-(1-(6-Chloro-7-(((R)-1-(2,4-dichlorophenyl)ethyl)amino)benzo[d]oxazol-2-yl)azetidin-3-yl)piperidin-1-yl)-1-methylcyclobutane-1-carboxylic acid] | < 0.25 µM | – | 103% | –
3 | C[C@@H](Nc1c(F)cnc2nc(N3CC([C@H]4CCCN([C@H]5C[C@](C)(C(=O)O)C5)C4)C3)sc12)c1ncc(F)cc1F (single isomer, unassigned) [Compound 45] | > 0.5 µM | 89% | – | –
4 | C[C@@H](Nc1cccc2nc(N3CC([C@H]4CCCN([C@H]5C[C@](C)(C(=O)O)C5)C4)C3)n(C)c12)c1ccc(Cl)cc1Cl [Compound 22] | – | – | 29.5% | –
5 | Cc1cc(N[C@H](C)c2ccc(Cl)cc2Cl)c2oc(N3CC([C@H]4CCCN([C@H]5C[C@](C)(C(=O)O)C5)C4)C3)nc2c1 [Compound 5] | 0.25 to 0.5 µM | – | 102% | –
6 | C[C@@H](Nc1ncnc2nc(N3CC([C@H]4CCCN([C@H]5C[C@](C)(C(=O)O)C5)C4)C3)sc12)c1ccc(Cl)cc1Cl [Compound 32, (1R,3r)-3-((R)-3-(1-(7-(((R)-1-(2,4-Dichlorophenyl)ethyl)amino)thiazolo[4,5-d]pyrimidin-2-yl)azetidin-3-yl)piperidin-1-yl)-1-methylcyclobutane-1-carboxylic acid] | < 0.25 µM | 104% | – | –
7 | C[C@@H](Nc1cccc2nc(N3CC([C@H]4CCCN([C@H]5C[C@](C)(C(=O)O)C5)C4)C3)oc12)c1ccc(Cl)cc1Cl [Compound 2, (1R,3r)-3-((R)-3-(1-(7-(((R)-1-(2,4-dichlorophenyl)ethyl)amino)benzo[d]oxazol-2-yl)azetidin-3-yl)piperidin-1-yl)-1-methylcyclobutane-1-carboxylic acid] | < 0.25 µM | – | 99.5% | –
8 | C[C@H](Nc1c(F)cnc2nc(N3CC([C@H]4CCCN([C@H]5C[C@](C)(C(=O)O)C5)C4)C3)sc12)c1ncc(F)cc1F (single isomer, unassigned) [Compound 46] | 0.25 to 0.5 µM | 99% | – | –
9 | C[C@@H](Nc1nc(C(F)(F)F)nc2nc(N3CC([C@H]4CCCN([C@H]5C[C@](C)(C(=O)O)C5)C4)C3)sc12)c1ccc(Cl)cc1Cl [Compound 34] | 0.25 to 0.5 µM | 102% | – | –
10 | C[C@@H](Nc1c(Cl)ccc2nc(N3CC([C@H]4CCCN(C5(CC(=O)O)CCC5)C4)C3)oc12)c1ccc(Cl)cc1Cl [Compound 24] | – | 61% | – | –
11 | C[C@@H](Nc1c(Cl)cnc2nc(N3CC([C@H]4CCCN([C@H]5C[C@](C)(C(=O)O)C5)C4)C3)oc12)c1ccc(Cl)cc1Cl [Compound 17] | 0.25 to 0.5 µM | 102% | – | –
12 | C[C@@H](Nc1c(C(=O)N(C)C)ccc2nc(N3CC([C@H]4CCCN([C@H]5C[C@](C)(C(=O)O)C5)C4)C3)oc12)c1ccc(Cl)cc1Cl [Compound 20] | – | 41.5% | – | –
13 | C[C@@H](Nc1c(C(N)=O)ccc2nc(N3CC([C@H]4CCCN([C@H]5C[C@](C)(C(=O)O)C5)C4)C3)oc12)c1ccc(Cl)cc1Cl [Compound 19] | 0.25 to 0.5 µM | 93.8% | – | –
14 | C[C@@H](Nc1c(OC(F)(F)F)ccc2nc(N3CC([C@H]4CCCN([C@H]5C[C@](C)(C(=O)O)C5)C4)C3)oc12)c1ccc(Cl)cc1Cl [Compound 12] | 0.25 to 0.5 µM | 99.3% | – | –
15 | C[C@@H](Nc1c(F)ccc2nc(N3CC(C4CN([C@H]5C[C@](C)(C(=O)O)C5)CCO4)C3)sc12)c1ccc(Cl)cc1Cl (single isomer, unassigned) [Compound 28] | – | – | – | 72% at 5 μM
16 | C[C@@H](Nc1ccnc2nc(N3CC([C@H]4CCCN([C@H]5C[C@](C)(C(=O)O)C5)C4)C3)oc12)c1ccc(Cl)cc1Cl [Compound 16] | < 0.25 µM | 103% | – | –
17 | CC(Nc1c(F)cnc2nc(N3CC([C@H]4CCCN([C@H]5C[C@](C)(C(=O)O)C5)C4)C3)sc12)c1ncc(F)cc1F (stereo partly drawn) [Compound 44] | 0.25 to 0.5 µM | 99% | – | –
18 | C[C@@H](Nc1cncc2nc(N3CC([C@H]4CCCN([C@H]5C[C@](C)(C(=O)O)C5)C4)C3)oc12)c1ccc(Cl)cc1Cl [Compound 15] | 0.25 to 0.5 µM | 101% | – | –
19 | C[C@@H](Nc1nccc2nc(N3CC([C@H]4CCCN([C@H]5C[C@](C)(C(=O)O)C5)C4)C3)oc12)c1ccc(Cl)cc1Cl [Compound 14] | 0.25 to 0.5 µM | 96.4% | – | –
20 | C[C@@H](Nc1cc(Cl)cc2nc(N3CC([C@H]4CCCN([C@H]5C[C@](C)(C(=O)O)C5)C4)C3)oc12)c1ccc(Cl)cc1Cl [Compound 7] | 0.25 to 0.5 µM | – | 101% | –
21 | Cc1nc(N[C@H](C)c2ccc(Cl)cc2Cl)c2sc(N3CC([C@H]4CCCN([C@H]5C[C@](C)(C(=O)O)C5)C4)C3)nc2n1 [Compound 33] | < 0.25 µM | 103% | – | –
22 | C[C@@H](Nc1cccc2c1nc(N1CC([C@H]3CCCN([C@H]4C[C@](C)(C(=O)O)C4)C3)C1)n2C)c1ccc(Cl)cc1Cl [Compound 4] | – | – | 71% | –

Other lines, results leading:

Row | IC50 | inhibition [1] | inhibition (CHO-K1, at 30 μM) | % inhibition at 5 μM/30 μM (% E-Max) | SMILES
23 | > 0.5 µM | 93% | – | – | CC(Nc1c(OC(F)F)ccc2nc(N3CC([C@H]4CCCN([C@H]5C[C@](C)(C(=O)O)C5)C4)C3)sc12)c1ncc(Cl)cc1Cl (stereo partly drawn) [Compound 47]
24 | > 0.5 µM | – | – | 78% at 5 μM | C[C@@H](Nc1c(F)ccc2nc(N3CC([C@H]4CCCN([C@H]5C[C@](C)(C(=O)O)C5)C4)C3)sc12)c1ncc(Cl)cc1Cl [Compound 37, (1R,3r)-3-((R)-3-(1-(7-(((S)-1-(3,5-dichloropyridin-2-yl)ethyl)amino)-6-fluorobenzo[d]thiazol-2-yl)azetidin-3-yl)piperidin-1-yl)-1-methylcyclobutane-1-carboxylic acid]
25 | > 0.5 µM | – | 99% | – | C[C@H](Nc1c(OC(F)F)ccc2nc(N3CC([C@H]4CCCN([C@H]5C[C@](C)(C(=O)O)C5)C4)C3)sc12)c1ncc(F)cc1F [Compound 52]
26 | < 0.25 µM | – | – | 103% at 5 μM | C[C@@H](Nc1c(F)ccc2nc(N3CC([C@H]4CCCN([C@H]5C[C@](C)(C(=O)O)C5)C4)C3)sc12)c1ncc(Cl)cc1Cl [Compound 36, (1R,3r)-3-((R)-3-(1-(7-(((R)-1-(3,5-dichloropyridin-2-yl)ethyl)amino)-6-fluorobenzo[d]thiazol-2-yl)azetidin-3-yl)piperidin-1-yl)-1-methylcyclobutane-1-carboxylic acid]
27 | > 0.5 µM | – | 77% | – | C[C@@H](Nc1c(OC(F)F)ccc2nc(N3CC([C@H]4CCCN([C@H]5C[C@](C)(C(=O)O)C5)C4)C3)sc12)c1ncc(F)cc1F (single isomer, unassigned) [Compound 51]
28 | < 0.25 µM | 103% | – | – | C[C@@H](Nc1c(F)ncc2nc(N3CC([C@H]4CCCN([C@H]5C[C@](C)(C(=O)O)C5)C4)C3)sc12)c1ccc(Cl)cc1Cl [Compound 30]
29 | > 0.5 µM | 95% | – | – | C[C@H](Nc1c(F)cnc2nc(N3CC([C@H]4CCCN([C@H]5C[C@](C)(C(=O)O)C5)C4)C3)sc12)c1ncc(Cl)cc1Cl (single isomer, unassigned) [Compound 43]
30 | < 0.25 µM | 101% | – | – | C[C@@H](Nc1c(OC(F)F)ccc2nc(N3CC([C@H]4CCCN([C@H]5C[C@](C)(C(=O)O)C5)C4)C3)oc12)c1ccc(Cl)cc1Cl [Compound 11]
31 | 0.25 to 0.5 µM | 102% | – | – | C[C@@H](Nc1cccc2nc(N3CC([C@H]4CCCN([C@H]5C[C@](C)(C(=O)O)C5)C4)C3)sc12)c1ccc(Cl)cc1Cl [Compound 8]
32 | 0.25 to 0.5 µM | 84% | – | – | C[C@H](Nc1c(F)ccc2nc(N3CC([C@H]4CCCN([C@H]5C[C@](C)(C(=O)O)C5)C4)C3)sc12)c1ncc(F)cc1F [Compound 40]
33 | < 0.25 µM | 101% | – | – | C[C@@H](Nc1c(F)ccc2nc(N3CC([C@H]4CCCN([C@H]5C[C@](C)(C(=O)O)C5)C4)C3)sc12)c1ccc(Cl)cc1Cl [Compound 25]
34 | 0.25 to 0.5 µM | 103% | – | – | C[C@@H](Nc1c(F)cnc2nc(N3CC([C@H]4CCCN([C@H]5C[C@](C)(C(=O)O)C5)C4)C3)sc12)c1ncc(Cl)cc1Cl (single isomer, unassigned) [Compound 42]
35 | < 0.25 µM | 103% | – | – | C[C@@H](Nc1c(F)ccc2nc(N3CC([C@H]4CCCN([C@H]5C[C@](C)(C(=O)O)C5)C4)C3)sc12)c1ccc(F)cc1F [Compound 29]
36 | 0.25 to 0.5 µM | 99% | – | – | C[C@H](Nc1c(OC(F)F)ccc2nc(N3CC([C@H]4CCCN([C@H]5C[C@](C)(C(=O)O)C5)C4)C3)sc12)c1ncc(Cl)cc1Cl (single isomer, unassigned) [Compound 49]
37 | < 0.25 µM | 104% | – | – | C[C@@H](Nc1c(Cl)ccc2nc(N3CC([C@H]4CCCN([C@H]5C[C@](C)(C(=O)O)C5)C4)C3)sc12)c1ccc(Cl)cc1Cl [Compound 23]
